Measurements from patent publication US11866433B2, “Diarylthiohydantoin compound as androgen receptor antagonist” (CHIA TAI TIANQING PHARMACEUTICAL GROUP CO., LTD., priority 2017, dated 2024).

Key:
[1] = Tissue distribution test of Compound 27 and Compound 10 (plasma and brain); type: in vivo; conditions: intragastric 2 mg/kg, 2 h after administration, male CD-1 mice
Procedure: Taking male CD-1 mice as test animals, drug concentrations in plasma and brain after intragastric administration of Compound 27 and Compound 10 to the mice were determined by the LC/MS/MS method, respectively.
2.2 Test Animals: Six healthy adult male CD-1 mice were divided into 2 groups, with 3 mice in each group, according to the principle of similar body weight. The animals were purchased from Shanghai Super-BK Laboratory Animal Co., Ltd., with Animal Production License No.: SCXK (Shanghai) 2013-0016.
An appropriate amount of sample was weighed, and an appropriate amount of DMSO, PEG400 and water were added successively at a volume ratio of 10:40:50. After stirring and ultrasonic processing, the resulting mixture reached a clear solution state of 0.4 mg/mL.
Six male CD-1 mice were divided into 2 groups, fasted overnight, and intragastrically administered at an administration volume of 5 mL/kg in a dose of 2 mg/kg.
After Compound 27 and Compound 10 were intragastrically administered to the male CD-1 mice, 100 μL of blood was collected by cardiac puncture at 2 h, placed in a test tube containing 2 μl of EDTA-K2, and centrifuged at 3000 g for 15 min to separate 50 μL of plasma, which was stored at −60° C. Meanwhile, brain tissues were collected, washed, then homogenized with 5-fold 15 mM PBS/MeOH (v:v, 2:1), and stored at −60° C. The animals were allowed to eat 2 hours after administration.
After intragastric administration to the mice, the content of the test compound in plasma and brain was determined by the LC/MS/MS method. The linear range of the method was 2.00-6000 nmol/L; and the plasma samples were analyzed after the treatment with acetonitrile precipitated protein.

[2] = system: Human prostate cancer LNCaP-FGC cells; test: In vivo pharmacodynamic study on subcutaneous xenograft tumor model of human prostate cancer LNCaP-FGC cells; set-up: species or system CB-17 SCID mice; conditions: 50 mg/kg PO QD, after 21 days of administration, vs solvent control
Procedure: 2.1 Experimental Animals • Species: Mice • Strain: CB-17 SCID mice • Week age and body weight: 6-8 weeks old, 18-22 g body weight • Gender: male • Supplier: Beijing Vital River Laboratory Animal Technology Co., Ltd • Animal Certificate No.: 11400700184227 3. Experimental Method and Steps 3.1 Cell Culture
Human prostate cancer LNCaP-FGC cells (ATCC, Manassas, Virginia) were cultured in vitro monolayers under the culture conditions of RPM11640 medium supplemented with […] fetal bovine serum at 37° C. with 5% CO2. Routine digestion treatment with trypsin-EDTA was performed twice a week for passage. When the cell saturation was 80%-90%, the cells were collected, counted, and inoculated.
0.2 mL (10×10^6) of LNCaP-FGC cells (10×10^6+Matrigel, 1:1) was inoculated subcutaneously to the right back of each CB-17 SCID mouse. When the average tumor volume reached 100-150 mm^3, administration in groups was started.
The tumor diameters were measured with a vernier caliper twice a week. The calculation formula of the tumor volume is: V=0.5a×b^2, wherein a and b represent the long diameter and the short diameter of the tumor, respectively. The antitumor efficacy of the compounds were evaluated by TGI (%) or a relative tumor proliferation rate T/C (%). TGI(%)=[(1−(average tumor volume of a treatment group at the end of drug administration−average tumor volume of the treatment group at the beginning of drug administration))/(average tumor volume of the vehicle control group at the end of treatment−average tumor volume of the vehicle control group at the beginning of treatment)]×100%. The calculation formula of the relative tumor proliferation rate T/C (%) is as follows: T/C %=TRTV/CRTV×100% (TRTV: RTV of a treatment group; CRTV: RTV of a negative control group). The relative tumor volume (RTV) is calculated based on the tumor measurement results, and the calculation formula is RTV=Vt/V0, wherein V0 is the average tumor volume measured at the time of administration in groups (i.e., do), Vt is the average tumor volume at one measurement, and TRTV and CRTV are the data obtained on the same day.
The statistical analysis includes mean and standard error of mean (SEM) of the tumor volume at each time point for each group. […] The comparison between two groups was analyzed by T-test, and the comparison between three or more groups was analyzed by one-way ANOVA. If there was a significant difference in the F value, the Games-Howell method was used for testing. If there was no significant difference in the F value, the Dunnet (2-sided) method was used for analysis. All data analysis was performed by using SPSS 17.0. “p<0.05” was considered a significant difference.

androgen receptor (AR) = target: T1, androgen receptor (AR) (Homo sapiens, UniProt P10275); test: Antagonism of compounds on nuclear translocation of androgen receptor (PathHunter NHR cell lines); type: cell-based; conditions: antagonist mode, agonist 6a-Fluorotestosterone 0.06 μM (EC80)
T1 sequence (P10275 1-920): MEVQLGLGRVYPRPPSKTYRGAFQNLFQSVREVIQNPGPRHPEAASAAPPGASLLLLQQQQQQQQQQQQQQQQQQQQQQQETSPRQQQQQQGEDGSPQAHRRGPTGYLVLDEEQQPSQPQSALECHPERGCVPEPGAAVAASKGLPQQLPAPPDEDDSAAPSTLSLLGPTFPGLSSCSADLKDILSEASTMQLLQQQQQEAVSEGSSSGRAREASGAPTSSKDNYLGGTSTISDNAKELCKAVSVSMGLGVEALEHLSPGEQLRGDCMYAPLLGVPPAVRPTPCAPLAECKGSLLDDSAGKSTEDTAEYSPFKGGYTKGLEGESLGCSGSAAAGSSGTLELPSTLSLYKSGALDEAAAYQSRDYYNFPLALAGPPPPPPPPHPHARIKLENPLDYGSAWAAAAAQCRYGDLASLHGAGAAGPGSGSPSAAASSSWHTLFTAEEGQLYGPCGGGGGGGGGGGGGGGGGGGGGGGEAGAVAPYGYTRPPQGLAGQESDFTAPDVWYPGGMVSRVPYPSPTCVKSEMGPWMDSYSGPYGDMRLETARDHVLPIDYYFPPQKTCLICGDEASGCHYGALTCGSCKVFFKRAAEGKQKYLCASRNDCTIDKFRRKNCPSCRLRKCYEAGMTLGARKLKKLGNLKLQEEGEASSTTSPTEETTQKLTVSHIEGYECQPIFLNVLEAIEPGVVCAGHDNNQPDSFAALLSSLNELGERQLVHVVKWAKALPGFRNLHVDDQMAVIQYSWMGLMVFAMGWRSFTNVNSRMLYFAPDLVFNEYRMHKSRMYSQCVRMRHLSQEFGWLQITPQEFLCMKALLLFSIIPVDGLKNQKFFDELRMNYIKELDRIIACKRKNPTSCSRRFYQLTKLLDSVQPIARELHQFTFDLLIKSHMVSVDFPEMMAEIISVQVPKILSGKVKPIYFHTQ
Procedure: Example 75 Test of Antagonism of Compounds on Nuclear Translocation of Androgen Receptor (AR)
1. PathHunter NHR cell lines were recovered and cultured for amplification.
2. The cells were inoculated onto a 384-well plate prior to testing, and incubated at 37° C. The serum for culture was filtered with charcoal-dextran to reduce the hormone level therein.
3. In the detection of the antagonistic function, a compound was added to the cells and incubated for 60 min. The working concentration of the test compound was diluted from 10 μM at a 3-fold concentration gradient, respectively including: […]. Then, an agonist 6a-Fluorotestosterone 0.06 μM (concentration: EC80, i.e., 80% agonistic compound concentration) was added, and the mixture was incubated at 37° C. or at room temperature for 3-16 h.
4. Signal detection: 12.5 μL or 15 μL (50%, v/v) PathHunter detection mixed solution (kit: DiscoverX product catalog number: 93-0001 series) was added, and incubated at room temperature for 1 h. The chemiluminescent signal was read with a PerkinElmer Envision™ instrument.
5. Data analysis: The compound activity was analyzed with CBIS data analysis software (ChemInnovation, CA). The calculation formula of the inhibition percent of the antagonist is as follows: IC50 inhibition ratio (%)=[…]×(1−(average RLU value of the test compound−average RLU value of the blank control group)/(average RLU value of EC80 control group−average RLU value of the blank control group)).

SMILES	IC50 (androgen receptor (AR)) [µM]	also measured
CCc1nc(OCCO)c2cc(N3C(=S)N(c4ccc(C#N)c(C(F)(F)F)c4)C(=O)C3(C)C)ccc2n1 [Compound 27]	2.21	Concentration in Brain [1]: 85.2 ± 21.9 nmol/kg; Kp at 2 h ([1]; mouse, brain / plasma, oral, read-out: Brain to Blood Ratio): 0.00917 ± 0.0004; concentration at 2 h ([1]; mouse, plasma, oral): 9.25 ± 2.11 µM; TGI [2]: 51.0%; relative tumor proliferation rate T/C [2]: 53.1%
CCOc1cc(=O)n2cc(N3C(=S)N(c4ccc(C#N)c(C(F)(F)F)c4)C(=O)C3(C)C)cc(F)c2n1 [Compound 55]	1.4	
CCc1nc2ccc(-n3c(=S)n(-c4ccc(C#N)c(C(F)(F)F)c4)c4nccc(C)c43)cc2c(=O)[nH]1 [Compound 56]	2.86	
CCc1cc(=O)n2cc(N3C(=S)N(c4ccc(C#N)c(C(F)(F)F)c4)C(=O)C3(C)C)cc(OC)c2n1 [Compound 57]	5.47	
CCc1cc(=O)n2cc(N3C(=S)N(c4ccc(C#N)c(F)c4)C(=O)C3(C)C)cc(F)c2n1 [Compound 59]	8.92	
CCc1cc(=O)n2cc(N3C(=S)N(c4ccc(C#N)c(C(F)(F)F)c4)C(=O)C3(C)C)cc(C)c2n1 [Compound 60]	1.83	
CCc1cc(=O)n2cc(N3C(=S)N(c4ccc(C#N)c(C(F)(F)F)c4)C(=O)C3(C)C)cc(Cl)c2n1 [Compound 61]	1.45	
CC1(C)C(=O)N(c2ccc(C#N)c(C(F)(F)F)c2)C(=S)N1c1cc(F)c2nc(C(F)F)cc(=O)n2c1 [Compound 62]	1.69	
CCc1nc(-c2c[nH]cn2)c2cc(N3C(=S)N(c4ccc(C#N)c(C(F)(F)F)c4)C(=O)C3(C)C)cc(F)c2n1 [Compound 63]	1.34	
CCOc1cc(=O)n2cc(N3C(=S)N(c4cnc(C#N)c(C(F)(F)F)c4)C(=O)C3(C)C)cc(F)c2n1 [Compound 64]	2.81	
COCCOc1cc(=O)n2cc(N3C(=S)N(c4ccc(C#N)c(C(F)(F)F)c4)C(=O)C3(C)C)cc(F)c2n1 [Compound 65]	2.09	
CCc1cc(=O)n2cc(-n3c(=S)n(-c4ccc(C#N)c(C(F)(F)F)c4)c4nccc(C)c43)cc(F)c2n1 [Compound 66]	7.12	
CC1(C)C(=O)N(c2ccc(C#N)c(C(F)(F)F)c2)C(=S)N1c1cc(F)c2nc(OCCO)cc(=O)n2c1 [Compound 67]	2.3	
COc1cc(=O)n2cc(N3C(=S)N(c4ccc(C#N)c(C(F)(F)F)c4)C(=O)C3(C)C)cc(F)c2n1 [Compound 68]	1.91	
COCc1cc(=O)n2cc(N3C(=S)N(c4ccc(C#N)c(C(F)(F)F)c4)C(=O)C3(C)C)cc(F)c2n1 [Compound 69]	4	
CCOc1nc(OCCO)c2cc(N3C(=S)N(c4ccc(C#N)c(C(F)(F)F)c4)C(=O)C3(C)C)cc(F)c2n1 [Compound 70]	4.27	
COc1nc(OCCO)c2cc(N3C(=S)N(c4ccc(C#N)c(C(F)(F)F)c4)C(=O)C3(C)C)cc(F)c2n1 [Compound 71]	2.76	
CCOc1nc(OCCO)c2cc(N3C(=S)N(c4cnc(C#N)c(C(F)(F)F)c4)C(=O)C3(C)C)cc(F)c2n1 [Compound 72]	2.41	
COc1nc(OCCO)c2cc(N3C(=S)N(c4cnc(C#N)c(C(F)(F)F)c4)C(=O)C3(C)C)cc(F)c2n1 [Compound 73]	2.13	
CC1(C)C(=O)N(c2cnc(C#N)c(C(F)(F)F)c2)C(=S)N1c1cc(F)c2nc(C(F)F)cc(=O)n2c1 [Compound 74]	2.96	
CCc1cc(=O)n2cc(N3C(=S)N(c4cnc(C#N)c(Cl)c4)C(=O)C3(C)C)cc(F)c2n1 [Compound 75]	0.92	
